From patent US6608086B2, “Dihydropyridines and new uses thereof” (Synaptic Pharmaceutical Corporation, priority 1993, dated 2003)
Where a name gives a salt, the structure may show the parent alone. Read-outs that look alike come from different tables or passages of the source.

Assays:
α2A receptor = target: T1, α2A receptor (Homo sapiens, UniProt P08913); experiment: Competition binding, [3H]rauwolscine, human α2A receptor
T1 construct: host or cells: LM(tk-) cells, line L-α2A
T1 sequence (P08913 1-465): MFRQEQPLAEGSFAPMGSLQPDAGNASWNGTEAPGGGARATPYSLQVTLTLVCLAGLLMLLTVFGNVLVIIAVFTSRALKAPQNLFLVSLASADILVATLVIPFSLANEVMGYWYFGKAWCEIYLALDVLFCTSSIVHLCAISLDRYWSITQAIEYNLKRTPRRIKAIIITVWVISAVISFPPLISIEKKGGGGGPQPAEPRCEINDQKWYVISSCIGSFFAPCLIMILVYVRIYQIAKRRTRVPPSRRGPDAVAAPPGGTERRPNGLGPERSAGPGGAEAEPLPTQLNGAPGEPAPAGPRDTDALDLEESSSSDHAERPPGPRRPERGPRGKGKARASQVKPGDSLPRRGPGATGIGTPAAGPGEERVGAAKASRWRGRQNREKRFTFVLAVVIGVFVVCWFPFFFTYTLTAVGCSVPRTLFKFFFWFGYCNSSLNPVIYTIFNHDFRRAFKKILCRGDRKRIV
Method in brief: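 Filter-bound [3H]rauwolscine (0.5 nM) was measured after equilibrium competition with test antagonists on lysates of LM(tk−) cells stably transfected with each human α2 subtype. Buffer: 25 mM glycylglycine, pH 7.6 at room temperature; 10 μM phentolamine gave nonspecific binding.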

[1] = target: T2, α1C Human Adrenergic Receptor (Homo sapiens, UniProt P35348); experiment: Radioligand binding, [3H]prazosin, cloned human α1C adrenergic receptor
T2 construct: The entire coding region of α1C (1401 bp); expressed in transfected cells
T2 sequence (P35348 1-466): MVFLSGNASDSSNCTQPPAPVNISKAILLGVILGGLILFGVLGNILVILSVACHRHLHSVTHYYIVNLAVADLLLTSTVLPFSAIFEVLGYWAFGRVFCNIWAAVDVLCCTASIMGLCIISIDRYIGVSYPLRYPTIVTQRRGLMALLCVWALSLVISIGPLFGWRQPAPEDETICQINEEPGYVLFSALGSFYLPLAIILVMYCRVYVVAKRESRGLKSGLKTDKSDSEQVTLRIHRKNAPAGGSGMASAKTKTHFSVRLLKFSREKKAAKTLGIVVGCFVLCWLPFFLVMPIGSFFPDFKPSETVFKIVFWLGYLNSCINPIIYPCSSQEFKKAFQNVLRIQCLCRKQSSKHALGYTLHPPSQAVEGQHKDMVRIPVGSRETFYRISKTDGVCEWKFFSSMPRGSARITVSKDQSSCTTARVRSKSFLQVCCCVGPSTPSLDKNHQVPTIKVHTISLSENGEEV
Method in brief: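 Stably transfected mouse LM(tk−) fibroblast membranes bearing the cloned human α1C adrenoceptor served as receptor source. Specific binding was taken as the portion of 0.5 nM [3H]prazosin displaceable by 10 μM phentolamine after 20 min at 37° C., pH 7.5, in Mg2+/ascorbate-containing Tris buffer.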

[2] = target: T3, α1B Human Adrenergic Receptor (Homo sapiens, UniProt P35368); experiment: Radioligand binding, [3H]prazosin, cloned human α1B adrenergic receptor
T3 construct: The entire coding region of α1B (1563 bp); expressed in transfected cells
T3 sequence (P35368 1-520): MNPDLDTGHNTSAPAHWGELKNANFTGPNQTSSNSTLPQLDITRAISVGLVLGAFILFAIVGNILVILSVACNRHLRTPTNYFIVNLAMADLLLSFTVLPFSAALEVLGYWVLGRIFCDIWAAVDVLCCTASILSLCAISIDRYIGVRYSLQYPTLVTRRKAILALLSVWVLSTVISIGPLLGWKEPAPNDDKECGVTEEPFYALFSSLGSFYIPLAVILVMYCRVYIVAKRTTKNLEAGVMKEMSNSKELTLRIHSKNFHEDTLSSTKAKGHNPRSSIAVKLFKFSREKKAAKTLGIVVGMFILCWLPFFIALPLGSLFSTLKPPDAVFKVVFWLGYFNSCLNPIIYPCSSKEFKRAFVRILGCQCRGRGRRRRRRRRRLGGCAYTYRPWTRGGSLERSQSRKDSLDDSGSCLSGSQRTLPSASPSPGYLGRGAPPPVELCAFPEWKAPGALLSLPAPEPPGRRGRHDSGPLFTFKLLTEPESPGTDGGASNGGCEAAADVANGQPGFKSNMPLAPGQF
Method in brief: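 Membranes from stably transfected LM(tk−) cells, resuspended in 50 mM Tris-HCl, 1 mM MgCl2, 0.1% ascorbic acid, pH 7.5, were incubated with 0.5 nM [3H]prazosin for 20 min at 37° C. Nonspecific binding defined with 10 μM phentolamine; bound ligand separated by GF/B filtration.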

[3] = cloned human receptor in LM(tk-) cell membranes, SEM and n in lines below, read-out: pKi alpha-1 1c (converted)
[4] = cloned human receptor in LM(tk-) cell membranes, SEM and n in lines below, read-out: pKi alpha-1 1b (converted)
[5] = [3H]rauwolscine, LM(tk-) cell line L-α2A, SEM and n in lines below, read-out: pKi alpha-2 2a (converted)
[6] = pKi alpha-1 1c, cloned human receptor in LM(tk-) cell membranes, SEM and n in lines below
[7] = pKi alpha-1 1b, cloned human receptor in LM(tk-) cell membranes, SEM and n in lines below
[8] = [3H]rauwolscine, human α2A receptor, LM(tk−) cells, read-out: pKi alpha-2 2a (converted)
[9] = cloned human α1C receptor, LM(tk−) cell membranes, read-out: pKi alpha-1 1c (converted)
[10] = cloned human α1B receptor, LM(tk−) cell membranes, read-out: pKi alpha-1 1b (converted)
[11] = pKi alpha-1 1c, cloned human α1C receptor, LM(tk−) cell membranes
[12] = pKi alpha-1 1b, cloned human α1B receptor, LM(tk−) cell membranes

COC(=O)C1=C(C)NC(C)=C(C(=O)NCCCN2CCC(c3ccccc3)(c3ccccc3)CC2)C1c1ccc(C(C)C)cc1 (stereo not drawn) [Example 18, 1,4-Dihydro-4-(4-isopropylphenyl)-3-methoxycarbonyl-2,6-dimethyl-5-(N-(3-(4,4-diphenylpiperidin-1-yl)propyl)carboxamido)pyridine]
Ki (α2A receptor): 2140 nM
Ki [1, 3]: 69.2 nM
Ki [2, 4]: 174 nM

CCC1=C(C(=O)NCCCN2CCC(c3ccccc3)(c3ccccc3)CC2)C(c2ccc([N+](=O)[O-])cc2)C(C(=O)OC)=C(C)N1 (stereo not drawn) [Example 73, 2-Ethyl-1,4-dihydro-5-methoxycarbonyl-6-methyl-4-(4-nitro) phenyl-3-(N-(3-(4,4-diphenylpiperidin-1-yl)propyl))carboxamidopyridine]
Ki (α2A receptor): 794 nM
Ki [1, 3]: 0.661 nM
Ki [2, 4]: 148 nM

COC(=O)C1=C(C)NC(C)=C(C(=O)NCCCN2CCC(c3ccccc3)(c3ccccc3)CC2)C1C1CCCCC1 (stereo not drawn) [Example 6]
Ki (α2A receptor): 832 nM
Ki [1, 3]: 148 nM
Ki [2, 4]: 204 nM

COC(=O)C1=C(C)NC(C)=C(C(=O)NCCCN2CCC(c3ccccc3)(c3ccccc3)CC2)C1Cc1ccccc1 (stereo not drawn) [Example 8, 4-Benzyl-1,4-dihydro-3-methoxycarbonyl-2,6-dimethyl-5-(N-(3-(4,4-diphenylpiperidin-1-yl)propyl)carboxamido)pyridine]
Ki (α2A receptor; [5]): 832 nM
Ki [1, 6]: 75.9 nM
Ki [2, 7]: 186 nM

CCC1=C(C(=O)OCCC#N)C(c2ccc([N+](=O)[O-])cc2)C(C(=O)NCCCN2CCC(c3ccccc3)(c3ccccc3)CC2)=C(COC)N1 (stereo not drawn) [Example 135]
Ki (α2A receptor; [8]): 661 nM
Ki [1, 9]: 105 nM
Ki [2, 10]: 178 nM

COC(=O)C1=C(C)NC(C)=C(C(=O)NCCCN2CCC(c3ccccc3)(c3ccccc3)CC2)C1c1ccc(C(=O)OC)cc1 (stereo not drawn) [Example 25, 1,4-Dihydro-3-methoxycarbonyl-4-(4-methoxycarbonylphenyl)-2,6-dimethyl-5-(N-(3-(4,4-diphenylpiperidin-1-yl)propyl)carboxamide)pyridine]
Ki (α2A receptor): 1510 nM
Ki [1, 3]: 33.9 nM
Ki [2, 4]: 331 nM

CCC1=C(C(N)=O)C(c2ccc(S(C)(=O)=O)cc2)C(C(=O)NCCCN2CCC(c3ccccc3)(c3ccccc3)CC2)=C(C)N1 (stereo not drawn) [Example 118, 3-Carboxamido-2-ethyl-1,4-dihydro-4-(4-methanesulfonylphenyl)-6-methyl-3-(N-(3-(4,4-diphenylpiperidin-1-yl)propyl)carboxyamido)-pyridine]
Ki (α2A receptor; [8]): 3890 nM
Ki [1, 11]: 9.55 nM
Ki [2, 12]: 1780 nM

CCC1=C(C(N)=O)C(c2ccc([N+](=O)[O-])cc2)C(C(=O)NCCCN2CCC(O)(c3ccccc3)CC2)=C(CC)N1 (stereo not drawn) [Example 100, 5-Carboxamido-2,6-diethyl-1,4-dihydro-3-{N-(3-(4-hydroxy-4-phenylpiperidin-1-yl)propyl]}carboxamido-4-(4-nitrophenyl)pyridine hydrochloride hydrate]
Ki (α2A receptor; [8]): 794 nM
Ki [1, 11]: 4.37 nM
Ki [2, 12]: 1480 nM

COC(=O)C1=C(C)NC(C)=C(C(=O)NCCCN2CCC(c3ccccc3)(c3ccccc3)CC2)C1c1ccc(Cl)c([N+](=O)[O-])c1 (stereo not drawn) [Example 16, 4-(4-Chloro-3-nitrophenyl)-1,4-dihydro-3-methoxycarbonyl-2,6-dimethyl-5-(N-(3-(4,4-diphenylpiperidin-1-yl)propyl)carboxamido)pyridine]
Ki (α2A receptor): 1120 nM
Ki [1, 3]: 5.89 nM
Ki [2, 4]: 174 nM

CCC1=C(C(=O)NCCCN2CCC(c3ccccc3)(c3ccccc3)CC2)C(c2ccc([N+](=O)[O-])cc2)C(C(N)=O)=C(COCCN=[N+]=[N-])N1 (stereo not drawn) [Example 149, 2-((2-Azidoethyl)oxy)methyl-3-carboxamido-6-ethyl-1,4-dihydro-4-(4-nitro) phenyl-5-(N-(3-(4,4-diphenylpiperidin-1-yl)propyl))carboxamidopyridine]
Ki (α2A receptor; [8]): 501 nM
Ki [1, 11]: 5.5 nM
Ki [2, 12]: 245 nM

CCOC(=O)C1=C(CC(=O)NCCCN2CCC(c3ccccc3)(c3ccccc3)CC2)NC(C)=C(C(=O)OC)C1c1ccc([N+](=O)[O-])cc1 (stereo not drawn) [Example 89, 3-Ethoxycarbonyl-1,4-dihydro-5-methoxycarbonyl-6-methyl-4-(4-nitro)phenyl-2-(N-(3-(4,4,-diphenylpiperidin-1-yl)propyl)carboxamido)methylpyridine, fumarate salt]
Ki (α2A receptor): 2340 nM
Ki [1, 9]: 501 nM
Ki [2, 10]: 141 nM

CCC1=C(C(=O)NCCCN2CCC(c3ccccc3)(c3ccccc3)CC2)C(c2cccc(OC)c2)C(C(N)=O)=C(C)N1 (stereo not drawn) [Example 113, 5-Carboxamide-2-ethyl-1,4-dihydro-4-(3-methoxyphenyl)-6-methyl-3-(N-(3-(4,4-diphenylpiperidin-1-yl)propyl)carboxamido)-pyridine]
Ki (α2A receptor; [8]): 759 nM
Ki [1, 11]: 17.8 nM
Ki [2, 12]: 347 nM

COC(=O)C1=C(C)NC(C)=C(C(=O)NCCCN2CCC(c3ccccc3)(c3ccccc3)CC2)C1c1ccc(C#N)cc1 (stereo not drawn) [Example 12, 4-(4-Cyanophenyl)-1,4-dihydro-3-methoxycarbonyl-2,6-dimethyl-5-(N-(3-(4,4-diphenylpiperidin-1-yl)propyl)carboxamido)pyridine]
Ki (α2A receptor): 776 nM
Ki [1, 3]: 1.82 nM
Ki [2, 4]: 151 nM

CCC1=C(C(N)=O)C(c2ccc([N+](=O)[O-])cc2)C(C(=O)NCCCN2CCC(C#N)(c3ccccc3)CC2)=C(CC)N1 (single isomer, unassigned; (-)) [(−)-102]
Ki (α2A receptor; [8]): 1910 nM
Ki [1, 11]: 112 nM
Ki [2, 12]: 3160 nM

COC(=O)C1=C(C)NC(C)=C(C(=O)NCCCN2CCC(c3ccccc3)(c3ccccc3)CC2)C1c1ccoc1 (stereo not drawn) [Example 23, 4-(3-Furyl)-1,4-dihydro-3-methoxycarbonyl-2,6-dimethyl-5-(N-(3-(4,4-diphenylpiperidin-1-yl)propyl)carboxamide)pyridine]
Ki (α2A receptor; [5]): 955 nM
Ki [1, 6]: 14.5 nM
Ki [2, 7]: 214 nM

CCC1=C(C(=O)OCCC#N)C(c2ccc([N+](=O)[O-])cc2)C(C(=O)NCCCN2CCC(c3ccccc3)(c3ccccc3)CC2)=C(COCCN=[N+]=[N-])N1 (stereo not drawn) [Example 141]
Ki (α2A receptor; [8]): 603 nM
Ki [1, 11]: 5.37 nM
Ki [2, 12]: 33.1 nM

CCC1=C(C(N)=O)C(c2ccc([N+](=O)[O-])cc2)C(C(=O)NCCCN2CCC(c3ccc(OC)cc3)(c3ccc(OC)cc3)CC2)=C(CC)N1 (stereo not drawn) [Example 103, 5-Carboxamido-2,6-diethyl-1,4-dihydro-3-{N-[3-(4,4-bis-(4-methoxyphenyl)piperidin-1-yl)propyl]}carboxamido}-4-(4-nitrophenyl)pyridine hydrochloride]
Ki (α2A receptor): 490 nM
Ki [1, 9]: 10.7 nM
Ki [2, 10]: 182 nM
